This is an account of results in patent publication US20220041582A1, “ISOXAZOLINE COMPOUNDS FOR CONTROLLING INVERTEBRATE PESTS” (FMC Corporation, priority 2018, published 2022).

Type in all cases: in vivo
In data set [1] the test system is sweetpotato whitefly (Bemisia tabaci (Gennadius)). Kind of data set: Test G: control of sweetpotato whitefly through contact and/or systemic means. Particulars: 312 h. As for the experimental part: (§1) Formulation and Spray Methodology for Tests A-H
(§2) Test compounds were formulated using a solution containing 10% acetone, 90% water and 300 ppm Activator 90® non-ionic surfactant (Loveland Products, Loveland, Colo., USA). The formulated compounds were applied in 1 mL of liquid through an atomizer nozzle positioned 1.27 cm (0.5 inches) above the top of each test unit. Test compounds were sprayed at the rates indicated, and each test was replicated three times.
For evaluating control of the sweetpotato whitefly (Bemisia tabaci (Gennadius)) through contact and/or systemic means, the test unit consisted of a small open container with a 12-14-day-old cotton plant inside. Prior to the spray application, both cotyledons were removed from the plant, leaving one true leaf for the assay. Adult whiteflies were allowed to lay eggs on the plant and then were removed from the test unit. Cotton plants infested with at least 15 eggs were submitted to the test for spraying.
Test compounds were formulated and sprayed at 250, 50 and 10 ppm. After spraying, the test units were allowed to dry for 1 hour. The cylinders were then removed, and the units were taken to a growth chamber and held for 13 days at 28° C. and 50-70% relative humidity. Each test unit was then visually assessed for insect mortality.

The test system of data set [2] is potato leafhopper (Empoasca fabae (Harris)). Kind of data set: Test D: control of potato leafhopper through contact and/or systemic means. Particulars: 144 h. As for the experimental part: as §1, §2
[…] White sand was added to the top of the soil, and one of the primary leaves was excised prior to application of the test compound.
Test compounds were formulated and sprayed at 250, 50 and 10 ppm. After spraying of the formulated test compound, the test units were allowed to dry for 1 hour before they were post-infested with 5 potato leafhoppers (18-to-21-day-old adults). A black, screened cap was placed on the top of the test unit, and the test units were held for 6 days in a growth chamber at 20° C. and 70% relative humidity. Each test unit was then visually assessed for insect mortality.

In data set [3] the test system is cotton melon aphid (Aphis gossypii (Glover)). Kind of data set: Test F: control of cotton melon aphid through contact and/or systemic means. The note with it: 144 h. As for the experimental part: as §1, §2
[…] This was pre-infested with 30-40 insects on a piece of leaf according to the cut-leaf method, and the soil of the test unit was covered with a layer of sand.
Test compounds were formulated and sprayed at 250, 50 and 10 ppm. After spraying, the test units were maintained in a growth chamber for 6 days at 19° C. and 70% relative humidity. Each test unit was then visually assessed for insect mortality.

In data set [4] the test system is green peach aphid (Myzus persicae (Sulzer)). The experiment in a line: Test E: control of green peach aphid through contact and/or systemic means. Particulars: 144 h. As for the experimental part:
as §1, §2
For evaluating control of green peach aphid (Myzus persicae (Sulzer)) through contact and/or systemic means, the test unit consisted of a small open container with a 12-15-day-old radish plant inside. This was pre-infested by placing on a leaf of the test plant 30-40 aphids on a piece of leaf excised from a culture plant (cut-leaf method). The aphids moved onto the test plant as the leaf piece desiccated. After pre-infestation, the soil of the test unit was covered with a layer of sand.
Test compounds were formulated and sprayed at 250, 50 and 10 ppm. After spraying of the formulated test compound, each test unit was allowed to dry for 1 hour and then a black, screened cap was placed on top. The test units were held for 6 days in a growth chamber at 19-21° C. and 50-70% relative humidity. Each test unit was then visually assessed for insect mortality.

For data set [5], the system named is corn planthopper (Peregrinus maidis (Ashmead)). Kind of data set: Test C: control of corn planthopper through contact and/or systemic means. Particulars: 6 days; for mortality at 50 ppm: Peregrinus maidis, 144 h, 50 ppm spray, read-out: mortality. As for the experimental part:
as §1, §2
For evaluating control of corn planthopper (Peregrinus maidis (Ashmead)) through contact and/or systemic means, the test unit consisted of a small open container with a 3-4-day-old corn (maize) plant inside. White sand was added to the top of the soil prior to application of the test compound.
Test compounds were formulated and sprayed at 50 and 10 ppm. After spraying of the formulated test compound, the test units were allowed to dry for 1 h before they were post-infested with ˜15-20 nymphs (18-to-21-day-old). A black, screened cap was placed on the top of each test unit, and the test units were held for 6 days in a growth chamber at 22-24° C. and 50-70% relative humidity. Each test unit was then visually assessed for insect mortality.

The mark [6] stands for this setting: 50 ppm spray, 6 days, read-out: mortality.

The structures appear in SMILES notation. Like-named read-outs stand apart in the source and are kept apart here.

For orientation: mortality means the percentage killed. With `C[C@H](CSCC(F)(F)F)NC(=O)c1ccc(C2=NOC(c3cc(Cl)c(F)c(Cl)c3)(C(F)(F)F)C2)c2ccncc12` (stereo partly drawn) [Compound 62], the results for the mortality at 50 ppm in data set [1], in data set [2] and in data set [3] were at least 50%, at least 80% and at least 80%, respectively.
Turning to `CC(C)NC(=O)c1ccc(C2=NOC(c3cc(Cl)c(F)c(Cl)c3)(C(F)(F)F)C2)c2ccncc12` (stereo not drawn) [Compound 28], the mortality at 10 ppm is at least 50% in data set [1], at least 80% in data set [4] and at least 80% in data set [3]. Further, the mortality at 50 ppm in data set [1] was at least 50%; in data set [4] it was at least 80%; in data set [2], at least 80%; in data set [3], at least 80%.
As to `O=C(NCC1CC1)c1ccc(C2=NOC(c3cc(Cl)cc(C(F)(F)F)c3)(C(F)(F)F)C2)c2ccncc12` (stereo not drawn) [Compound 36, 5-[5-[3-chloro-5-(trifluoromethyl)phenyl]-4,5-dihydro-5-(trifluoromethyl)-3-isoxazolyl]-N-(cyclopropylmethyl)-8-isoquinolinecarboxamide], the mortality at 10 ppm in data set [1] is at least 50%; in data set [4] it was at least 80%; in data set [2], at least 80%; in data set [3], at least 80%. The mortality at 50 ppm is at least 50% in data set [1], at least 80% in data set [4], at least 80% in data set [2] and at least 80% in data set [3].
Consider `O=C(NCc1ncccn1)c1ccc(C2=NOC(c3cccc(C(F)(F)F)c3)(C(F)(F)F)C2)c2ccncc12` (stereo not drawn) [Compound 18], for which, in data set [4] (10 ppm spray, 6 days, read-out: mortality), the mortality at 10 ppm was at least 80%. Further, the mortality at 50 ppm in data set [4] (setting [6]), in data set [3] (setting [6]) and in data set [5] was at least 80% each time.
For `O=C(NC1CSC1)c1ccc(C2=NOC(c3cc(Cl)c(F)c(Cl)c3)(C(F)(F)F)C2)c2ccncc12` (stereo not drawn) [Compound 43], the mortality at 50 ppm in data set [2] and in data set [3] was at least 80% throughout.
For `C[C@H](C[S+](C)[O-])NC(=O)c1ccc(C2=NOC(c3cc(Cl)c(F)c(Cl)c3)(C(F)(F)F)C2)c2ccncc12` (stereo partly drawn) [Compound 14], the mortality at 50 ppm in data set [2] was at least 80%.
Take `C[C@@H](NC(=O)c1ccc(C2=NOC(c3cc(Cl)c(F)c(Cl)c3)(C(F)(F)F)C2)c2ccncc12)c1ccccn1` (stereo partly drawn) [Compound 13]: the mortality at 10 ppm in data set [1] was at least 50%; in data set [4] it was at least 80%; in data set [2] it was at least 80%; in data set [3], at least 80%. For the same molecule, the mortality at 50 ppm in data set [1] was at least 50%; in data set [4], at least 80%; in data set [2] it was at least 80%; in data set [3], at least 80%.
For `O=C(NC1CC1)c1ccc(C2=NOC(c3cc(Cl)c(F)c(Cl)c3)(C(F)(F)F)C2)c2ccncc12` (stereo not drawn) [Compound 23, N-cyclopropyl-5-[5-(3,5-dichloro-4-fluorophenyl)-4,5-dihydro-5-(trifluoromethyl)-3-isoxazolyl]-8-isoquinolinecarboxamide], the mortality at 10 ppm in data set [4] and in data set [3] was at least 80% each time. Moreover, the mortality at 50 ppm in data set [4], in data set [2] and in data set [3] was at least 80% each time.
On to `O=C(NCc1cnccn1)c1ccc(C2=NOC(c3cc(Cl)c(F)c(Cl)c3)(C(F)(F)F)C2)c2ccncc12` (stereo not drawn) [Compound 7], for which the mortality at 50 ppm is at least 50% in data set [1], at least 80% in data set [4], at least 80% in data set [2] and at least 80% in data set [3].
For the molecule `C[S+]([O-])CCNC(=O)c1ccc(C2=NOC(c3cc(Cl)c(F)c(Cl)c3)(C(F)(F)F)C2)c2ccncc12` (stereo not drawn) [Compound 11], the mortality at 50 ppm in data set [4], in data set [2] and in data set [3] was at least 80% throughout. In addition, in data set [2], the mortality at 10 ppm is at least 80%.
Regarding `CSCCNC(=O)c1ccc(C2=NOC(c3cccc(C(F)(F)F)c3)(C(F)(F)F)C2)c2ccncc12` (stereo not drawn) [Compound 29], the mortality at 50 ppm in data set [4] (setting [6]), in data set [3] (setting [6]) and in data set [5] was at least 80% in each case.
Take `CC(C)(C)NC(=O)c1ccc(C2=NOC(c3cc(Cl)c(F)c(Cl)c3)(C(F)(F)F)C2)c2ccncc12` (stereo not drawn) [Compound 2, 5-[5-(3,5-dichloro-4-fluorophenyl)-4,5-dihydro-5-(trifluoromethyl)-3-isoxazolyl]-N-(1,1-dimethylethyl)-8-isoquinolinecarboxamide]: the mortality at 10 ppm was at least 50% in data set [1] and at least 80% in data set [3]. Further, the mortality at 50 ppm in data set [1] is at least 50%; in data set [4], at least 80%; in data set [2], at least 80%; in data set [3], at least 80%. Besides, the mortality at 250 ppm in data set [1] is at least 50%; in data set [4] it was at least 80%; in data set [2] it was at least 80%; in data set [3], at least 80%.
On to `O=C(NC1CC1)c1ccc(C2=NOC(c3cc(Cl)cc(Cl)c3)(C(F)(F)F)C2)c2ccncc12` (stereo not drawn) [Compound 70, N-cyclopropyl-5-[5-(3,5-dichlorophenyl)-4,5-dihydro-5-(trifluoromethyl)-3-isoxazolyl]-8-isoquinolinecarboxamide], for which the mortality at 50 ppm in data set [4], in data set [2] and in data set [3] was at least 80% in each case. Besides, the mortality at 10 ppm in data set [3] is at least 80%.
On to `COCC(C)NC(=O)c1ccc(C2=NOC(c3cc(Cl)c(F)c(Cl)c3)(C(F)(F)F)C2)c2ccncc12` (stereo not drawn) [Compound 20], for which the mortality at 10 ppm in data set [1] is at least 50%; in data set [4] it was at least 80%; in data set [3], at least 80%. The mortality at 50 ppm in data set [1] was at least 50%; in data set [4], at least 80%; in data set [2], at least 80%; in data set [3], at least 80%.
Turning to `O=C(NC1CC1)c1ccc(C2=NO[C@@](c3cc(Cl)c(F)c(Cl)c3)(C(F)(F)F)C2)c2ccncc12` [Compound 82, S—N-cyclopropyl-5-[5-(3,5-dichloro-4-fluorophenyl)-4,5-dihydro-5-(trifluoromethyl)-3-isoxazolyl]-8-isoquinolinecarboxamide], the mortality at 10 ppm in data set [4] and in data set [3] was at least 80% in each case. Also, the mortality at 50 ppm in data set [4], in data set [2] and in data set [3] was at least 80% throughout.
For `CS(=O)(=O)N1CC(NC(=O)c2ccc(C3=NOC(c4cc(Cl)c(F)c(Cl)c4)(C(F)(F)F)C3)c3ccncc23)C1` (stereo not drawn) [Compound 21, 5-[5-(3,5-dichloro-4-fluorophenyl)-4,5-dihydro-5-(trifluoromethyl)-3-isoxazolyl]-N-[1-(methylsulfonyl)-3-azetidinyl]-8-isoquinolinecarboxamide], the mortality at 50 ppm was at least 50% in data set [1], at least 80% in data set [2] and at least 80% in data set [3].
With `N#CC1(CNC(=O)c2ccc(C3=NOC(c4cc(Cl)c(F)c(Cl)c4)(C(F)(F)F)C3)c3ccncc23)CC1` (stereo not drawn) [Compound 10], the mortality at 10 ppm in data set [1] is at least 50%. The mortality at 50 ppm in data set [1] was at least 50%; in data set [4] it was at least 80%; in data set [2] it was at least 80%; in data set [3] it was at least 80%.
`O=C(NCc1ncccn1)c1ccc(C2=NOC(c3ccc(F)c(C(F)(F)F)c3)(C(F)(F)F)C2)c2ccncc12` (stereo not drawn) [Compound 76]: the mortality result in data set [5] (10 ppm spray) is “at least 80%”.
